Article PMC10665444, “Unveiling the potential role of natriuretic peptide receptor a isoforms in fine-tuning the cGMP production and tissue-specific function” (Scientific Reports, 2023)

Key:
[1] = test system: NPR-A; details: ANP compared with BNP; cited from earlier work
Excerpt: They interact with three NP receptors (NPRs), namely NPR-A, NPR-B and NPR-C. Lack of NPs or their receptors have been associated with hypertension and heart failure.

[2] = test system: WT NPR-A co-transfected with isoform 2; experiment: Whole-cell cGMP assay, DLD-1 cells co-transfected with WT NPR-A and isoform 2; type: cell-based, rat; details: peptide 30 min, ELISA, triplicates
Excerpt: (§1) A plasmid containing rat NPR-A in a pCMV-4 backbone, gifted by Dr. Ruey-Bing Yang (Academia Sinica), was used as the NPR-A template. All three receptor isoforms plasmids were created by modifying the NPR-A sequence in the template plasmid using Site-Directed Mutagenesis (SDM) following the protocol from the Q5® Site-Directed Mutagenesis kit. All plasmids were cloned and expanded in NEB 5 α competent cells. DNA sequencing was done to confirm the success of the SDM. Primers used to clone isoform 1 are 5’—tga ccc tga gtg ggg gca acc ttg tgg c—3’ and 5’—gcc aca agg ttg ccc cca ctc agg gtc a—3’. primers used to clone isoform 2 are 5’ –gac ggg tgc ctt cag gcc ctg cca ggt tgt cct gaa cta ta—3’ and 5’ –tat agt tca gga caa cct ggc agg gcc tga agg cac ccg tc—3’. Primers used to clone isoform 3 are 5’—gtg gag gat ggc ctg gca gtg aca gag act—3’ and 5’—agt ctc tgt cac tgc cag gcc atc ctc cac—3’.
(§2) DLD-1 cells were cultured in complete RPMI-1640 medium supplemented with 10% HI-FBS and 1% Penicillin–Streptomycin (P/S). Cells were sub-cultured every 3 days using trypsinization. DLD-1 cells (0.2 million) were seeded per well in 24-well plates to attain near 70% confluent before transfection was performed following the manufacturer’s protocol. Plasmids of interest was incubated with lipofectamine 3000 in a 1:1 ratio before the mixture was added to the cells. For single transfection, 0.8 μ g of the plasmid of interest was used. For co-transfection, the NPR-A WT plasmid was fixed at 0.8 μ g and the receptor isoforms were mixed with the WT plasmid according to their given percentages. For 1% co-transfection, 0.8 μ g of NPR-A WT plasmid was mixed with 0.00808 μ g of receptor isoforms. […]
(§3) Cells were transfected following the transfection protocol above and incubated for another 16 h overnight. […] Total protein content of three wells were determined using Bicinchoninic acid assay and used for normalizing across the different 24-well plates. Expression of the receptors in 3 wells were determined using Western blotting.

[3] = test system: NPR-A; details: compared with the vasodilatory analogue (DRD-ANP); cited from earlier work
Excerpt: We evaluated the roles of three distinct amino acid residues found within the K-ring and the C-terminal and identified the residues that are responsible for these functions. […] The separation of diuretic and hemodynamic bioactivity in DRD-ANP and D ...

[4] = test system: WT NPR-A co-transfected with isoform 1; experiment: Whole-cell cGMP assay, DLD-1 cells co-transfected with WT NPR-A and isoform 1; type: cell-based, rat; details: peptide 30 min, ELISA, triplicates
Excerpt: as §1
(§4) DLD-1 cells were cultured in complete RPMI-1640 medium supplemented with 10% HI-FBS and 1% Penicillin–Streptomycin (P/S). Cells were sub-cultured every 3 days using trypsinization. […]
as §3

[5] = test system: WT NPR-A co-transfected with isoform 3; experiment: Whole-cell cGMP assay, DLD-1 cells co-transfected with WT NPR-A and isoform 3; type: cell-based, rat; details: peptide 30 min, ELISA, triplicates
Excerpt: as §1, §2, §3

[6] = test system: WT NPR-A co-transfected with receptor isoforms; experiment: Whole-cell cGMP assay, DLD-1 cells co-transfected with WT NPR-A and isoforms (statements over more than one isoform); type: cell-based, rat; details: 1% co-transfection of isoform 1 and 2
Excerpt: as §1, §4, §3

[7] = test system: NPR-A isoform 2; experiment: Whole-cell cGMP assay (competitive ELISA), DLD-1 cells transfected with NPR-A isoform 2 alone; type: cell-based, rat; details: IBMX 0.5 mM 30 min, then peptide 30 min
Excerpt: as §1, §4, §3

[8] = test system: NPR-A isoform 3; experiment: Whole-cell cGMP assay (competitive ELISA), DLD-1 cells transfected with NPR-A isoform 3 alone; type: cell-based, rat; details: IBMX 0.5 mM 30 min, then peptide 30 min
Excerpt: as §1, §4, §3

[9] = test system: NPR-A isoform 1; experiment: Whole-cell cGMP assay (competitive ELISA), DLD-1 cells transfected with NPR-A isoform 1 alone; type: cell-based, rat; details: IBMX 0.5 mM 30 min, then peptide 30 min
Excerpt: as §1, §4, §3

CC[C@H](C)[C@@H]1NC(=O)[C@H](CCCNC(=N)N)NC(=O)[C@H](CC(=O)O)NC(=O)[C@H](CCSC)NC(=O)[C@H](CCCNC(=N)N)NC(=O)CNC(=O)CNC(=O)[C@H](Cc2ccccc2)NC(=O)[C@@H](NC(=O)[C@H](CO)NC(=O)[C@H](CO)NC(=O)[C@H](CCCNC(=N)N)NC(=O)[C@H](CCCNC(=N)N)NC(=O)[C@H](CC(C)C)NC(=O)[C@@H](N)CO)CSSC[C@@H](C(=O)N[C@@H](CC(N)=O)C(=O)N[C@@H](CO)C(=O)N[C@@H](Cc2ccccc2)C(=O)N[C@@H](CCCNC(=N)N)C(=O)N[C@@H](Cc2ccc(O)cc2)C(=O)O)NC(=O)CNC(=O)[C@H](CC(C)C)NC(=O)CNC(=O)[C@H](CO)NC(=O)[C@H](CCC(N)=O)NC(=O)[C@H](C)NC(=O)CNC1=O [ANP, Atrial natriuretic peptide]
binding affinity for NPR-A (in words) [1]: stronger binding affinity than BNP | decrease in cGMP production of WT NPR-A ([2]; 1% co-transfection with isoform 2): 8.0% | decrease in cGMP production of WT NPR-A ([2]; 10% co-transfection with isoform 2): 69.8% | decrease in cGMP production of WT NPR-A ([2]; 50% co-transfection with isoform 2): 84.1% | rate of cGMP production (in words) [3]: produce cGMP much faster than the vasodilatory analogue (DRD-ANP) | decrease in cGMP production of WT NPR-A ([4]; 1% co-transfection with isoform 1): approximately 10.6% | decrease in cGMP production of WT NPR-A ([4]; 50% co-transfection with isoform 1): 87.4% | decrease in cGMP production of WT NPR-A ([5]; 1% co-transfection with isoform 3): 22.6% | decrease in cGMP production of WT NPR-A ([5]; 10% co-transfection with isoform 3): 54.3% | decrease in cGMP production of WT NPR-A ([5]; 50% co-transfection with isoform 3): 86.2% | reduction in cGMP production (range over isoforms 1 and 2) [6]: 8–10.6% | cGMP production (result in words) [7]: no cGMP production was observed | cGMP production (result in words) [8]: no cGMP production was observed | cGMP production (result in words) [9]: no cGMP production was observed
